US12637427B2, “ALDH-2 inhibitor compounds and methods of use” (Amygdala Neurosciences, Inc., priority 2022, dated 2026)
pIC50: −log10 of the molar value.

Experiments:
[1] = target: T1, recombinant human ALDH-2 (Homo sapiens, UniProt P05091); assay: ALDH-2 inhibition assay; type: biochemical; conditions: 60 min pre-incubation; 10 μM = highest concentration tested; read-out: Enzymatic Assays IC50 ALDH2
T1 sequence (P05091 18-517): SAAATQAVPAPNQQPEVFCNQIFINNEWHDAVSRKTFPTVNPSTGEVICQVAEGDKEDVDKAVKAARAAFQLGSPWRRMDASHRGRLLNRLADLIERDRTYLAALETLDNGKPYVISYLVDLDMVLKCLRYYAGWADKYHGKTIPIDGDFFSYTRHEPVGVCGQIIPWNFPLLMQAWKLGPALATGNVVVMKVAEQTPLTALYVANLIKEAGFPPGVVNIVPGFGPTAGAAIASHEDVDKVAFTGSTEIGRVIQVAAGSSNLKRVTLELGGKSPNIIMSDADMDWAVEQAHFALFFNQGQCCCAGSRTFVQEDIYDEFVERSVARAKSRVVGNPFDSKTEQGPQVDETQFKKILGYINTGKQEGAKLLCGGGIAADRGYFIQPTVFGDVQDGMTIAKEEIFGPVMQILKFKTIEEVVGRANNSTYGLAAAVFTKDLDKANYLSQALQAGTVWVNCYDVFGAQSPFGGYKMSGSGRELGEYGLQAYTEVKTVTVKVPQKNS
Protocol: A. ALDH-2 inhibition assay: The ALDH-2 reaction mixture used in the assay contained 125 μM formaldehyde, 75 μM NAD+, 20 mM NaCl, 10 mM MgCl2, and 20 nM recombinant human ALDH-2 in 50 mM Hepes buffer, pH 7.5 in a final volume of 10 μL using 384-well Corning 3820 plates. After 60 min of pre-incubation of the test ALDH-2 inhibitor compound with ALDH-2, the reaction was started by adding NAD+ and formaldehyde and the assay reaction mixture was allowed to proceed for 60 minutes. Activity of the ALDH-2 enzyme was determined by monitoring NADH formation using Perkin-Elmer Envision Reader with excitation and emission wavelengths set at 340 and 460 nm, respectively.

[2] = target: T2, recombinant human ALDH-3 (Homo sapiens, UniProt P30838); assay: ALDH-3 inhibition assay; type: biochemical; conditions: 60 min pre-incubation; 10 μM = highest concentration tested; read-out: Enzymatic Assays IC50 ALDH-3
T2 sequence (P30838 1-453): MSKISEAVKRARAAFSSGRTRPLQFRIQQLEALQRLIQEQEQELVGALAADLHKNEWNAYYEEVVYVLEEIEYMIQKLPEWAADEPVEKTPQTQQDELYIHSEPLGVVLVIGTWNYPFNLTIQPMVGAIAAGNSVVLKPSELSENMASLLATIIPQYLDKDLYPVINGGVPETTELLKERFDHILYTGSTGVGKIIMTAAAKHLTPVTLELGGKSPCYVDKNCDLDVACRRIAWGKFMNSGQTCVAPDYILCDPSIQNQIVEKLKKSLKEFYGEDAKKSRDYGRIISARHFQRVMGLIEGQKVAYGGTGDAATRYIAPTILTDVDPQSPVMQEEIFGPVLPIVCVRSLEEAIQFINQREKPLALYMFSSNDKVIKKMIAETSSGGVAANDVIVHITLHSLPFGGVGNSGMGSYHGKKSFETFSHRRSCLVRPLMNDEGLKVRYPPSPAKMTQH
Protocol: ALDH-3 inhibition assay: The ALDH-3 reaction mixture used in the assay contained 200 μM benzaldehyde, 2.5 mM NAD+, 20 mM NaCl, 10 mM MgCl2, and 10 nM recombinant human ALDH-3 in 50 mM Hepes buffer, pH 7.5 in a final volume of 10 μL using 384-well Corning 3820 plates. After 60 min of pre-incubation of the test ALDH-2 inhibitor compound with ALDH-3, the reaction was started by adding NAD+ and benzaldehyde and the assay reaction mixture was allowed to proceed for 60 minutes. Activity of the ALDH-3 enzyme was determined by monitoring NADH formation using Perkin-Elmer Envision Reader with excitation and emission wavelengths set at 340 and 460 nm, respectively.

[3] = target: T3, recombinant human ALDH-1 (Homo sapiens, UniProt P00352); assay: ALDH-1 inhibition assay; type: biochemical; conditions: 60 min pre-incubation; 10 μM = highest concentration tested; read-out: Enzymatic Assays IC50 ALDH-1
T3 sequence (P00352 1-501): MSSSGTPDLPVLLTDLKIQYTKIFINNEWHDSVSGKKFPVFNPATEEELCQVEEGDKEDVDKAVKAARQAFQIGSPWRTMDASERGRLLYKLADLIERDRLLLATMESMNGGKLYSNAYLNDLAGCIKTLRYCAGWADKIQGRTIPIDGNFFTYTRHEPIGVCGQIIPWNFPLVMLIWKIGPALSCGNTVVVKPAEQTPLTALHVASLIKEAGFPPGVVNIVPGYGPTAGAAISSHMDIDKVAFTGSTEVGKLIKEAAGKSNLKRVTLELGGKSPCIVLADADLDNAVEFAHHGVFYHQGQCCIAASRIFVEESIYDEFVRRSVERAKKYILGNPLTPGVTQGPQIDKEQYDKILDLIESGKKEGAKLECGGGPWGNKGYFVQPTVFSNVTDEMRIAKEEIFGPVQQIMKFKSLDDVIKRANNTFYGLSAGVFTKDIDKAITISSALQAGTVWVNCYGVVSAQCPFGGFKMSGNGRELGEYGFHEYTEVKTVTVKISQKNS
Protocol: B. ALDH-1 inhibition assay: The ALDH-1 reaction mixture used in the assay contained 100 μM formaldehyde, 2.5 mM NAD+, 20 mM NaCl, 10 mM MgCl2, 1 mM dithiothreitol (DTT; reducing agent), and 50 nM recombinant human ALDH-1 in 50 mM Hepes buffer, pH 7.5 in a final volume of 10 μL using 384-well Corning 3820 plates. After 60 min of pre-incubation of the test ALDH-2 inhibitor compound with ALDH-1, the reaction was started by adding NAD+ and formaldehyde and the assay reaction mixture was allowed to proceed for 60 minutes. Activity of the ALDH-1 enzyme was determined by monitoring NADH formation using Perkin-Elmer Envision Reader with excitation and emission wavelengths set at 340 and 460 nm, respectively.

[4] = test system: HepaRG spheroids; assay: HepaRG 3D spheroid assay; type: cell-based; conditions: for Ratio MEC to ALDH2: HepaRG spheroid MEC divided by ALDH-2 IC50; for HepaRG 3D Spheroid MEC: minimum effective concentration crossing vehicle control threshold of cell health marker, 100 μM = highest concentration tested
Source text: See e.g., Walker et al., “The evolution of strategies to minimise the risk of human drug-induced liver injury (DILI) in drug discovery and development,” (2020) Archives of Toxicology, Vol. 94: 2559-2585, which is hereby incorporated by reference herein in its entirety. […] In applying the HepaRG spheroid assay analysis to determining the hepatoxic liability of ALDH-2 inhibitor compounds, consideration is made of the binding to plasma protein and the limitations to CNS penetration due to the blood-brain barrier.
E. HepaRG® 3D spheroid assay: The HepaRG 3D spheroid assay is described in Walker et al., “The evolution of strategies to minimise the risk of human drug-induced liver injury (DILI) in drug discovery and development,” (2020) Archives of Toxicology, Vol. 94: 2559-2585. Briefly, HepaRG® cells were seeded into ultra-low adhesion 96-well black walled clear bottomed spheroid microplates. […] At the end of the incubation period, the spheroids were loaded with the relevant dye/antibody for each cell health marker (spheroid count, spheroid size, DNA structure, mitochondrial mass, mitochondrial membrane potential, oxidative stress, glutathione content, and cellular ATP). The plates were then scanned using an automated fluorescent cellular imager, ArrayScan® (Thermo Scientific Cellomics).

Row | Compound | pIC50 [1] | pIC50 [2] | pIC50 [3] | Ratio MEC to ALDH2 [4] | HepaRG 3D Spheroid MEC [4]
1 | O=C(NCc1ccc(-c2cccc(=O)[nH]2)nc1)c1ccccc1Cl [(1l), 2-chloro-N-((6′-oxo-1′,6′-dihydro-[2,2′-bipyridin]-5-yl)methyl)benzamide] | 6.93 | < 5.00 | < 5.00 | 50 | 5.95 µM
2 | Cc1nccc(Br)c1C(=O)NCc1ccc(-c2[nH]c(=O)ccc2F)cc1 [(1g), 4-Bromo-N-(4-(3-fluoro-6-oxo-1,6-dihydropyridin-2-yl)benzyl)-2-methylnicotinamide] | 7.55 | < 5.00 | < 5.00 | 1668 | 46.7 µM
3 | Cc1cccc(Cl)c1C(=O)NCc1ccc(-c2cccc(=O)[nH]2)nc1 [(1k), 2-Chloro-6-methyl-N-((6′-oxo-1′,6′-dihydro-[2,2′-bipyridin]-5-yl)methyl)benzamide] | 8.00 | < 5.00 | < 5.00 | 2100 | 21.0 µM
4 | O=C(NCc1ccc(-c2cccc(=O)[nH]2)cc1)c1ccccc1Cl [(1b), 2-Chloro-N-(4-(6-oxo-1,6-dihydropyridin-2-yl)benzyl)benzamide] | 6.86 | < 5.00 | < 5.00 | >730 | No Effect
5 | Cc1nccc(Cl)c1C(=O)NCc1ccc(-c2cccc(=O)[nH]2)cc1 [(1c), 4-Chloro-2-methyl-N-(4-(6-oxo-1,6-dihydropyridin-2-yl)benzyl)nicotinamide] | 6.89 | < 5.00 | < 5.00 | 90 | 11.5 µM
6 | Cc1cccc(Cl)c1C(=O)NCc1ccc(-c2cccc(=O)[nH]2)cc1 [(1a), 2-Chloro-6-methyl-N-(4-(6-oxo-1,6-dihydropyridin-2-yl)benzyl)benzamide] | 7.11 | < 5.00 | < 5.00 | 133 | 10.4 µM
